Read-outs that look alike come from different tables or passages of the source.
Key:
human TAAR1 = biological target: T1, human TAAR1 (Homo sapiens, UniProt Q96RJ0); experiment: TAAR1 agonist activity, Hit Hunter cAMP assay; format: cell-based
T1 sequence (Q96RJ0 1-339): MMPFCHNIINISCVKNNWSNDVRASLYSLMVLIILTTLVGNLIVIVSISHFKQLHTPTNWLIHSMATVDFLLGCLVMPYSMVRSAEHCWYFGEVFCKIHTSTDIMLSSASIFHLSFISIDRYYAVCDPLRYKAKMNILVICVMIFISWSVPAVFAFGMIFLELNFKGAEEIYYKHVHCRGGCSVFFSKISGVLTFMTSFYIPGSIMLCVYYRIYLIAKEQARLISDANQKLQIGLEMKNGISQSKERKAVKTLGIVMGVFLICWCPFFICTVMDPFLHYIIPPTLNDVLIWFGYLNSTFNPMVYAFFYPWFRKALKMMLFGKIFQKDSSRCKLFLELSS
Experimental: The intrinsic activity of the TAAR1 receptor will be assessed according to the manufacturer’s protocol, using the Hit Hunter® cAMP assay by DiscoverX. This assay enables monitoring of GPCR activation in cells stably expressing TAAR1 by measuring changes in the level of the secondary messenger, cAMP. The cAMP Hunter cell lines were cultured from frozen stocks following standard procedures. Cells were plated in white-walled 384-well microplates at a total volume of 20 µL per well and incubated at 37 °C for the required period before analysis. To assess agonist activity, cells were exposed to the test compound to trigger a response. The culture medium was then removed and replaced with 15 µL of a 2:1 mixture of HBSS and 10 mM Hepes containing the cAMP XS+ antibody reagent. Sample stocks were diluted to prepare a 4× concentration in assay buffer. Subsequently, 5 µL of the 4× sample was added to each well, and the plates were incubated at either 37 °C or room temperature for 30 or 60 min. The vehicle was used at a concentration of 1%. After incubating the compounds for the required time, the assay signal was produced by adding 20 µL of the cAMP XS+ ED/CL lysis cocktail and incubating for one hour. This was followed by a three-hour incubation with 20 µL of the cAMP XS+EA reagent at room temperature. After signal development, the microplates were read using a PerkinElmer Envision Reader to detect chemiluminescence.

[1] = biological target: T2, 5-HT2C serotoninergic receptor (Homo sapiens, UniProt P28335); experiment: 5-HT2C intrinsic activity, antagonist mode (AequoScreen calcium mobilization); format: cell-based; conditions: n.a. = no activity at 10–5 M
T2 sequence (P28335 33-458): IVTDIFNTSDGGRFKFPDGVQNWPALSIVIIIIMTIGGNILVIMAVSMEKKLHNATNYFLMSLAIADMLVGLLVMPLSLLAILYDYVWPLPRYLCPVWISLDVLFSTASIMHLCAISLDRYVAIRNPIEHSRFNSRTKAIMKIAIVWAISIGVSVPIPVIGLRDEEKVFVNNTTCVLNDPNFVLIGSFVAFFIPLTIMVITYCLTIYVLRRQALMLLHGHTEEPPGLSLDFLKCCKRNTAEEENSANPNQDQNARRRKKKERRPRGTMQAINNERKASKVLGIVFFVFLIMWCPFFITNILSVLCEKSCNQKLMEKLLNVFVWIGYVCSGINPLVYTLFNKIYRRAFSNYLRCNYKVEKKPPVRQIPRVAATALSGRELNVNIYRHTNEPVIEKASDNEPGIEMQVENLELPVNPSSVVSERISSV
Experimental: The determination of intrinsic activity will be performed in accordance with the manufacturer’s Aequoscreen methodology—Perkin Elmer.
The cell density in the 96-well format was 5000 cells per well. Cell preparation for the assay was performed according to the manufacturer’s instructions for AequoScreen (PerkinElmer, Waltham, MA, USA). […] The cells suspension was applied onto the ligands with the injectors of the POLARstar optima reader (BMG Labtech, Ortenberg, Germany). […] The concentration and dilution series having four replicates were prepared as instructed in the AequoScreen Starter Kit Manual (PerkinElmer, Waltham, MA, USA). The wells received cell injections along with either the standard agonist or the compounds being evaluated, while the POLARstar optima reader documented the emitted light over a duration of 20 s. In the antagonist evaluation, cells were administered (50 μL) into the assay plate alongside antagonist solutions (50 μL). A single concentration of agonist (oxymetazoline) was injected (50 μL, final concentration EC80) into the preincubated (15–20 min) plate with cells and antagonist, and the emitted light was recorded for 20 s.

α2A-adrenoceptor = biological target: T3, α2A-adrenoceptor (Homo sapiens, UniProt P08913); experiment: α2A-adrenoceptor intrinsic activity, agonist mode (Tango bla reporter assay); format: cell-based; conditions: read-out: α2A Ago Emax, receptor activation relative to the full agonist control
T3 sequence (P08913 1-465): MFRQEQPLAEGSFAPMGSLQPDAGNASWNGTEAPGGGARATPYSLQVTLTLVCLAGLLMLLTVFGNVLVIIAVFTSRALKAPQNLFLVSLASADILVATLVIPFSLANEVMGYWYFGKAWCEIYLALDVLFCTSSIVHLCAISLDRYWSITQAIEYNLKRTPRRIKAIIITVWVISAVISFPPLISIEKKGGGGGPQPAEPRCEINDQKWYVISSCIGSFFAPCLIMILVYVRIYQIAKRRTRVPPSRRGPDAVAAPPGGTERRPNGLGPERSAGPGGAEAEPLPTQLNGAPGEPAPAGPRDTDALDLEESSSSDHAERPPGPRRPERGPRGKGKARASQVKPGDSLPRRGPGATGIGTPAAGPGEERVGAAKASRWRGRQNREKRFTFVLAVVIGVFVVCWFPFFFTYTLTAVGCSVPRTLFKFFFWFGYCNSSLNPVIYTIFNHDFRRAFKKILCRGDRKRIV
Experimental: Intrinsic α2A-adrenoceptor activity was assessed using Tango assay technology, which utilizes a mammalian-optimized beta-lactamase (bla) reporter gene in conjunction with a FRET-enabled substrate to provide reliable and sensitive detection in cells. The intrinsic activity test was conducted based on the guidelines provided by the maker of the test kit (Invitrogen, Life Technologies, Carlsbad, CA, USA). […] To perform the agonist assay, 8 μL of a 5-fold higher concentration of agonist in assay medium was added to the cells. […] The agonist and antagonist plates were then incubated in a humidified incubator at 37 °C and 5% CO2 for 5 h. After incubation, cells were loaded with 8 μL of LiveBLAzer™-FRET B/G substrate mix (CCF4-AM), covered for light protection, and incubated at room temperature for 2 h.

3T3L1 cell line = format: cell-based; conditions: mouse, 24 h
Experimental: (§1) Prior to investigating the biological activity and molecular characteristics of the test compounds in vitro, a comprehensive cytotoxicity screening was performed using HepG2 and 3T3-L1 cell lines. Two complementary assays were applied: one based on the quantification of adenylate kinase release as an indicator of cell membrane damage, and another relying on resazurin reduction to assess cellular metabolic activity. These complementary assays enable sensitive and reliable detection of cytotoxic effects across diverse cell types. This preliminary assessment was carried out to ensure that subsequent functional analyses would not be confounded by nonspecific cytotoxic effects.
(§2) The damage of cell membrane was evaluated with the ToxiLight BioAssay Kit from Lonza (Visp, Switzerland). This test is very sensitive and measures cell damage by looking at the release of adenylate kinase (AK). After 24 h of treatment, 5 µL of culture supernatant was transferred to a 384-well white plate (PerkinElmer, Singapore), followed by the addition of 20 µL of Adenylate Kinase Detection Reagent (AKDR). After a 10 min incubation at room temperature, luminescence was measured using the POLARstar Omega plate reader (BMG Labtech, Ortenberg, Germany). Results were expressed as a percentage relative to a lysed control (100% cell death).

HEPG2 cell line = format: cell-based; conditions: human, 24 h
Experimental: as §1, §2

3T3-L1 cell line = experiment: Cell viability assay (PrestoBlue, metabolic function), 3T3-L1; format: cell-based, mouse; conditions: 24 h, mean
Experimental: as §1
Cell viability was measured using PrestoBlue reagent (Thermo Fisher Scientific, Waltham, MA, USA), following the manufacturer’s instructions. After 24 h of compound treatment, PrestoBlue reagent was added to each well at 10% of the remaining medium volume. The plate was incubated at 37 °C for 15 min, and fluorescence was measured using the POLARstar Omega plate reader (excitation 530 nm, emission 580 nm). Results were expressed as a percentage of viable cells relative to the DMSO-treated control.

Danio rerio larvae = experiment: In vivo toxicity assay in zebrafish larvae (Casper and ABTL lines)
Experimental: To determine the toxicity of JP-14 to zebrafish larvae, 76 h post-fertilized (hpf) larvae ([…], ten per well) were kept in a 6-well plate and exposed to three concentrations of compound JP-14 diluted with embryonic medium (E3), whereas untreated larvae served as control (E3 alone). Each concentration was incubated in twelve wells. The mortality rate and disturbances were determined using a microscope (OPTA-TECH MN16, Warszawa, Poland) after 24 h of exposure.

[H]/N=C(\N)NN=Cc1c(Cl)cncc1Cl [JP-14, (E)-2-((3,5-Dichloropyridin-4-yl)Methylene)Hydrazine-1-Carboximidamide]
maximum cell stimulation (cAMP level) compared with the highest concentration of tyramine (human TAAR1; TAAR1-expressing cells): about twice as high | EC50 (human TAAR1; cAMP accumulation, n.a. = no activity at 10–5 M, read-out: TAAR1 Ago EC50): 11.3 ± 1.4 µM | 5-HT2C Ant EC50 [1]: did not exhibit any measurable agonistic or antagonistic activity | Emax (α2A-adrenoceptor): ~15% | membrane integrity, percentage relative to control (death cells) (3T3L1 cell line; 0.1 μM): 6% | membrane integrity, percentage relative to control (death cells) (3T3L1 cell line; 1 μM): 6% | membrane integrity, percentage relative to control (death cells) (3T3L1 cell line; 10 μM): 5% | membrane integrity, percentage relative to control (death cells) (3T3L1 cell line; 50 μM): 4% | membrane integrity, percentage relative to control (death cells) (3T3L1 cell line; 100 μM): 5% | membrane integrity, percentage relative to control (death cells) (HEPG2 cell line; 0.1 μM): 6% | membrane integrity, percentage relative to control (death cells) (HEPG2 cell line; 1 μM): 6% | membrane integrity, percentage relative to control (death cells) (HEPG2 cell line; 10 μM): 6% | membrane integrity, percentage relative to control (death cells) (HEPG2 cell line; 50 μM): 10% | membrane integrity, percentage relative to control (death cells) (HEPG2 cell line; 100 μM): 8% | cellular metabolic function, percentage relative to control (live cells) (3T3-L1 cell line; Table S5, 0.1 μM): 87% | cellular metabolic function, percentage relative to control (live cells) (3T3-L1 cell line; Table S5, 1 μM): 85% | cellular metabolic function, percentage relative to control (live cells) (3T3-L1 cell line; Table S5, 10 μM): 82% | cellular metabolic function, percentage relative to control (live cells) (3T3-L1 cell line; Table S5, 50 μM): 80% | cellular metabolic function, percentage relative to control (live cells) (3T3-L1 cell line; Table S5, 100 μM): 51% | effect on pigmentation (Danio rerio larvae): no effect on pigmentation was observed | concentration not causing any visible disturbances (Danio rerio larvae; Casper and AB/TL lines, zebrafish (Danio rerio), 24 h): 10000 ng/mL

From article PMC12563652 (International Journal of Molecular Sciences, 2025)
